Experimental data taken from patent publication US4684665A, “Sebosuppressive benzoic acid ester derivatives and cosmetic preparations containing them” (Henkel Kommanditgesellschaft auf Aktien, priority 1985, dated 1987).

Test system: accumulation of sebum
Experiment: Anti-seborrheic activity on the shaved back of rats (browning, second evaluation method), % sebum reduction
Format: in vivo
Details: topical, once daily on 9 of 14 days, male Wistar rats, treated side vs untreated control group; for % Sebum reduction at the indicated concentration of active substance: 0.02%: 0.02 wt. % in alcohol; for % Sebum reduction at the indicated concentration of active substance: 0.05%: 0.05 wt. % in alcohol; for % Sebum reduction at the indicated concentration of active substance: 0.1%: 0.1 wt. % in alcohol
From the text: Male Wistar rats having a body weight ranging from 220 to 230 g at the beginning of the tests were used as the test animals. The accumulation of sebum in the test animals was examined by visually observing the degree of browning on the shaved back of the rats. Browning is caused by the accumulation of the brown skin surface lipid secreted by the rats. This test is based on the observation that young female rats, as well as male rats washed with a surfactant solution or with a lipid solvent or male rats systematically treated with estrogens show only a normal light, pink-colored skin after shaving, while at the same time, only comparatively very small quantities of lipids can be extracted from the shaved hairs.
In order to assess the anti-seborrheic effectiveness of the alkoxy and alkylbenzyloxy benzoic acid esters of the present invention, alcoholic solutions of test substances (B), (E), (F), (H) and (I) were each brushed onto one side of the back of 6 rats. The benzoic acid ester derivatives tested were applied in concentrations ranging from 0.02 to 0.1 wt. % in the alcohol.
The test period consisted of 14 days. The test substances were applied, once daily on 9 of the 14 days. A second group of 6 rats which were not treated was used as an additional control. At the end of the test period, the backs and sides of the animals were shaved and visually inspected. The examination was done independently by an evaluation panel composed of 6 people using double blind techniques.
A second criterion of evaluation is the intensity of the brown coloration in the shaved area. The following scale is used for this analysis:
According to this second method of evaluation, differences in the total points between the untreated control animals and the treated and untreated sides (ΔP) of the test animals respectively are calculated. Significant differences between the total point values assigned to the control animals and the values assigned to the treated side of the test animals again indicate the antiseborrheic effectiveness of a substance.
The results are presented in terms of sebum reduction percentage. The sebum reduction percentage is calculated from the point differences by determining the quotient of the difference in total points between the control group and the treated side of the test animals (ΔP) and the total number of points for the control group (Pk) and then expressing the value obtained in percent. [formula]

In the case of “4-isotridecyloxy-benzoic acid methylester”, the “% Sebum reduction at the indicated concentration of active substance: 0.02%” value is reported as 83% and the “% Sebum reduction at the indicated concentration of active substance: 0.05%” value (“% Sebum reduction … 0.05%” below) is reported as 83%.

In the case of `CCCCCCCCCCCCOc1ccc(C(=O)OCCCO)cc1` [4-dodecyloxy benzoic acid-3-hydroxypropyl ester, reference compound], the “% Sebum reduction … 0.05%” value is reported as 18% and the “% Sebum reduction at the indicated concentration of active substance: 0.1%” value (“% Sebum reduction … 0.1%” for short) is reported as 33%.

`COC(=O)c1ccc(OCc2ccc(C(C)(C)C)cc2)cc1` [Compound E, 4-(4-tert-butylbenzyloxy)-benzoic acid methylester] was tested, and the “% Sebum reduction at the indicated concentration of active substance: 0.02%” value was 10% and the “% Sebum reduction … 0.05%” value was 77%.

For `CCCCCCCCCCCCOCCOc1ccc(C(=O)OCCCO)cc1` [H, 4-(2-dodecyloxy-ethoxy)-benzoic acid-3-hydroxypropyl ester], the “% Sebum reduction … 0.05%” value was 71%.

`CCCCCCCCCCCCOc1ccc(C(=O)OC)cc1` [4-dodecyloxy benzoic acid methyl ester, reference compound] was tested, and the “% Sebum reduction … 0.05%” value was 0% and the “% Sebum reduction … 0.1%” value was 18%.

With `COC(=O)c1ccc(OCCC(C)CC(C)(C)C)cc1` (stereo not drawn) [Compound B, 4-(3,5,5-trimethylhexyloxy)-benzoic acid methylester] the “% Sebum reduction … 0.05%” value was 36% and the “% Sebum reduction … 0.1%” value was 76%.

In the case of `CCCCCCCCCCCCOCCOc1ccc(C(=O)OC)cc1` [F, 4-(2-dodecyloxyethoxy)-benzoic acid methylester], the “% Sebum reduction … 0.05%” value is reported as 63%.
